The values that follow are results of earlier work, collected in patent US4883862A, “Mercaptosuccinyl glycyl-glycyl-glycine a complex thereof with Tc-99m, and methods of making the same” (Albert Einstein College of Medicine - of Yeshiva University, priority 1988, dated 1989).

Where [1] appears, read: 3 hrs after intravenous administration of 500 uCi.

For `O=C(O)CNC(=O)c1ccccc1[131I]` [I-131 OIH, o-[^131 I]iodohippurate], under setting [1], the “radiation dose to a normal kidney” value is listed as 47 mrad and the “radiation dose to the bladder wall” value is on record as 1.7 rad. For the same compound, for the setting “patients with impaired renal function”, the renal absorbed dose is recorded as at least 3 rad.
